Assay results taken from ChEMBL document CHEMBL1145574, “Carbonic anhydrase inhibitors: Inhibition of the new membrane-associated isoform XV with phenols” (Bioorg Med Chem Lett, 2008).

Legend:
Carbonic anhydrase 1 = Carbonic anhydrase 1 (Homo sapiens, UniProt P00915)
Description: Inhibition of human carbonic anhydrase 1 by stopped-flow CO2 hydrase assay

Carbonic anhydrase 15 = target: T1, Carbonic anhydrase 15 (Mus musculus, UniProt Q99N23)
T1 sequence (Q99N23 whole entry): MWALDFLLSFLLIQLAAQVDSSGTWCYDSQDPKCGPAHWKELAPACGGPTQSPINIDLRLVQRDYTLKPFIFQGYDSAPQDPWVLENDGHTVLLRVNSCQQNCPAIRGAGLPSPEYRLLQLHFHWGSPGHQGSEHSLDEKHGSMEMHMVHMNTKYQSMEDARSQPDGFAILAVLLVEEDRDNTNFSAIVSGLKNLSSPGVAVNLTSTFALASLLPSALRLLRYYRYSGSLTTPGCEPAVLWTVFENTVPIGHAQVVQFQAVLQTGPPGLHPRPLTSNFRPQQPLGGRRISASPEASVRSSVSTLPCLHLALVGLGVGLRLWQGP
Description: Inhibition of mouse recombinant carbonic anhydrase 15 by stopped-flow CO2 hydrase assay

Carbonic anhydrase 2 = Carbonic anhydrase 2 (Homo sapiens, UniProt P00918)
Description: Inhibition of human carbonic anhydrase 2 by stopped-flow CO2 hydrase assay

Carbonic anhydrase 1, sequence (P00915 whole entry): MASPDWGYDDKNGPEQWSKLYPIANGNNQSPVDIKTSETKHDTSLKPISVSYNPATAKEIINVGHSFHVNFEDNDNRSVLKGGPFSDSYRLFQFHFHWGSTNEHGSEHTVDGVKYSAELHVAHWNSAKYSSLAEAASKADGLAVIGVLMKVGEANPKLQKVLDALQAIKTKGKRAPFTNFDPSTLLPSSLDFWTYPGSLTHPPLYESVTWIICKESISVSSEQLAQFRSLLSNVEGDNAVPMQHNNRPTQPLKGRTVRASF

Row | SMILES | Ki (Carbonic anhydrase 1) [µM] | Ki (Carbonic anhydrase 15) [µM] | Ki (Carbonic anhydrase 2) [µM]
1 | N#Cc1ccc(O)cc1 [4-CYANOPHENOL] | 131 | 434 | –
2 | Oc1cc(F)ccc1F | 134 | 212 | 870
3 | Oc1cc(F)cc(F)c1 | – | 11.3 | –
4 | Oc1ccc(O)cc1 [HYDROQUINONE] | 10.7 | 10.6 | –
5 | CC(=O)Nc1ccc(O)cc1 [ACETAMINOPHEN] | 10 | 9.23 | 6.2
6 | Oc1c(I)cc(Cl)c2cccnc12 [CLIOQUINOL] | – | 2.33 | –
7 | Oc1ccccc1 [PHENOL] | – | 10.5 | –
8 | Nc1ccc(O)cc1 [4-AMINOPHENOL] | – | 335 | –
9 | O=C(O)c1ccc(O)cc1 [PARABEN] | 9.8 | 9.32 | –
10 | Oc1cccc(O)c1 [RESORCINOL] | 795 | 385 | –
11 | Oc1ccccc1O [CATECHOL] | 4000 | 10.2 | 9.91
